According to patent publication US11504340B2, “Ocular compositions” (THE QUEEN'S UNIVERSITY OF BELFAST, priority 2017, dated 2022):

Test: Stability of dexamethasone in phosphate buffer for long term release
Type: physicochemical

stability in phosphate buffer for long term release: instability
Compound: C[C@@H]1C[C@H]2[C@@H]3CCC4=CC(=O)C=C[C@]4(C)[C@@]3(F)[C@@H](O)C[C@]2(C)[C@@]1(O)C(=O)CO [dexamethasone]
